From ChEMBL document CHEMBL6120977, “Structure-Affinity-Pharmacokinetics Relationships of Novel 18F-Labeled 1,4-Diazepane Derivatives for Orexin 1 Receptor Imaging” (J Med Chem, 2024)
Values belong to the molecule of their own block, whether it stands above or below them.

What was measured:
[1] = Biodistribution in male ddY mouse blood administered intravenously and measured at 2 mins postinjection by gamma counter analysis; format: ADME, organism-based; conditions: in vivo, iv
[2] = Biodistribution in male ddY mouse liver administered intravenously and measured at 60 mins postinjection by gamma counter analysis; format: ADME, organism-based; conditions: in vivo, iv, 1 h
[3] = Biodistribution in male ddY mouse kidney administered intravenously and measured at 60 mins postinjection by gamma counter analysis; format: ADME, organism-based; conditions: in vivo, iv, 1 h
[4] = Biodistribution in male ddY mouse pancreas administered intravenously and measured at 30 mins postinjection by gamma counter analysis; format: ADME, organism-based; conditions: in vivo, iv, 0.5 h
[5] = Biodistribution in male ddY mouse stomach administered intravenously and measured per organ at 10 mins postinjection by gamma counter analysis; format: ADME, organism-based; conditions: in vivo, iv
[6] = Biodistribution in male ddY mouse heart administered intravenously and measured at 30 mins postinjection by gamma counter analysis; format: ADME, organism-based; conditions: in vivo, iv, 0.5 h
[7] = Biodistribution in male ddY mouse pancreas administered intravenously and measured at 60 mins postinjection by gamma counter analysis; format: ADME, organism-based; conditions: in vivo, iv, 1 h
[8] = Biodistribution in male ddY mouse bone administered intravenously and measured at 60 mins postinjection by gamma counter analysis; format: ADME, organism-based, Bone element; conditions: in vivo, iv, 1 h
[9] = Biodistribution in male ddY mouse pancreas administered intravenously and measured at 10 mins postinjection by gamma counter analysis; format: ADME, organism-based; conditions: in vivo, iv
[10] = Biodistribution in male ddY mouse blood administered intravenously and measured at 30 mins postinjection by gamma counter analysis; format: ADME, organism-based; conditions: in vivo, iv, 0.5 h
[11] = Biodistribution in male ddY mouse kidney administered intravenously and measured at 2 mins postinjection by gamma counter analysis; format: ADME, organism-based; conditions: in vivo, iv
[12] = Biodistribution in male ddY mouse heart administered intravenously and measured at 60 mins postinjection by gamma counter analysis; format: ADME, organism-based; conditions: in vivo, iv, 1 h
[13] = Biodistribution in male ddY mouse kidney administered intravenously and measured at 10 mins postinjection by gamma counter analysis; format: ADME, organism-based; conditions: in vivo, iv
[14] = Biodistribution in male ddY mouse brain administered intravenously and measured at 10 mins postinjection by gamma counter analysis; format: ADME, organism-based; conditions: in vivo, iv
[15] = Biodistribution in male ddY mouse intestine administered intravenously and measured at 10 mins postinjection by gamma counter analysis; format: ADME, organism-based; conditions: in vivo, iv
[16] = Biodistribution in male ddY mouse brain administered intravenously and measured at 2 mins postinjection by gamma counter analysis; format: ADME, organism-based; conditions: in vivo, iv
[17] = Biodistribution in male ddY mouse heart administered intravenously and measured at 2 mins postinjection by gamma counter analysis; format: ADME, organism-based; conditions: in vivo, iv
[18] = Biodistribution in male ddY mouse intestine administered intravenously and measured at 60 mins postinjection by gamma counter analysis; format: ADME, organism-based; conditions: in vivo, iv, 1 h
[19] = Biodistribution in male ddY mouse liver administered intravenously and measured at 10 mins postinjection by gamma counter analysis; format: ADME, organism-based; conditions: in vivo, iv
[20] = Biodistribution in male ddY mouse lung administered intravenously and measured at 2 mins postinjection by gamma counter analysis; format: ADME, organism-based; conditions: in vivo, iv
[21] = Biodistribution in male ddY mouse bone administered intravenously and measured at 10 mins postinjection by gamma counter analysis; format: ADME, organism-based, Bone element; conditions: in vivo, iv
[22] = Biodistribution in male ddY mouse stomach administered intravenously and measured per organ at 30 mins postinjection by gamma counter analysis; format: ADME, organism-based; conditions: in vivo, iv, 0.5 h
[23] = Biodistribution in male ddY mouse liver administered intravenously and measured at 30 mins postinjection by gamma counter analysis; format: ADME, organism-based; conditions: in vivo, iv, 0.5 h
[24] = Biodistribution in male ddY mouse spleen administered intravenously and measured at 2 mins postinjection by gamma counter analysis; format: ADME, organism-based; conditions: in vivo, iv
[25] = Biodistribution in male ddY mouse intestine administered intravenously and measured at 2 mins postinjection by gamma counter analysis; format: ADME, organism-based; conditions: in vivo, iv
[26] = Biodistribution in male ddY mouse stomach administered intravenously and measured per organ at 60 mins postinjection by gamma counter analysis; format: ADME, organism-based; conditions: in vivo, iv, 1 h
[27] = Biodistribution in male ddY mouse spleen administered intravenously and measured at 10 mins postinjection by gamma counter analysis; format: ADME, organism-based; conditions: in vivo, iv
[28] = Biodistribution in male ddY mouse stomach administered intravenously and measured per organ at 2 mins postinjection by gamma counter analysis; format: ADME, organism-based; conditions: in vivo, iv
[29] = Biodistribution in male ddY mouse heart administered intravenously and measured at 10 mins postinjection by gamma counter analysis; format: ADME, organism-based; conditions: in vivo, iv
[30] = Biodistribution in male ddY mouse intestine administered intravenously and measured at 30 mins postinjection by gamma counter analysis; format: ADME, organism-based; conditions: in vivo, iv, 0.5 h
[31] = Biodistribution in male ddY mouse spleen administered intravenously and measured at 30 mins postinjection by gamma counter analysis; format: ADME, organism-based; conditions: in vivo, iv, 0.5 h
[32] = Biodistribution in male ddY mouse spleen administered intravenously and measured at 60 mins postinjection by gamma counter analysis; format: ADME, organism-based; conditions: in vivo, iv, 1 h
[33] = Biodistribution in male ddY mouse kidney administered intravenously and measured at 30 mins postinjection by gamma counter analysis; format: ADME, organism-based; conditions: in vivo, iv, 0.5 h
[34] = Biodistribution in male ddY mouse liver administered intravenously and measured at 2 mins postinjection by gamma counter analysis; format: ADME, organism-based; conditions: in vivo, iv
[35] = Biodistribution in male ddY mouse pancreas administered intravenously and measured at 2 mins postinjection by gamma counter analysis; format: ADME, organism-based; conditions: in vivo, iv
[36] = Biodistribution in male ddY mouse lung administered intravenously and measured at 30 mins postinjection by gamma counter analysis; format: ADME, organism-based; conditions: in vivo, iv, 0.5 h
[37] = Biodistribution in male ddY mouse blood administered intravenously and measured at 10 mins postinjection by gamma counter analysis; format: ADME, organism-based; conditions: in vivo, iv
[38] = Biodistribution in male ddY mouse brain administered intravenously and measured at 60 mins postinjection by gamma counter analysis; format: ADME, organism-based; conditions: in vivo, iv, 1 h
[39] = Biodistribution in male ddY mouse bone administered intravenously and measured at 2 mins postinjection by gamma counter analysis; format: ADME, organism-based, Bone element; conditions: in vivo, iv
[40] = Biodistribution in male ddY mouse lung administered intravenously and measured at 60 mins postinjection by gamma counter analysis; format: ADME, organism-based; conditions: in vivo, iv, 1 h
[41] = Biodistribution in male ddY mouse bone administered intravenously and measured at 30 mins postinjection by gamma counter analysis; format: ADME, organism-based, Bone element; conditions: in vivo, iv, 0.5 h
[42] = Biodistribution in male ddY mouse blood administered intravenously and measured at 60 mins postinjection by gamma counter analysis; format: ADME, organism-based; conditions: in vivo, iv, 1 h
[43] = Biodistribution in male ddY mouse lung administered intravenously and measured at 10 mins postinjection by gamma counter analysis; format: ADME, organism-based; conditions: in vivo, iv
[44] = Biodistribution in male ddY mouse brain administered intravenously and measured at 30 mins postinjection by gamma counter analysis; format: ADME, organism-based; conditions: in vivo, iv, 0.5 h
[45] = molecular target: T1, Orexin/Hypocretin receptor type 1 (Homo sapiens, UniProt O43613); assay: Displacement of […]5IBOM from OX1R (unknown origin) transfected in CHO cells assessed as inhibition constant incubated for 1.5 hrs by automated gamma-counter analysis; format: cell-based
T1 sequence (O43613 whole entry): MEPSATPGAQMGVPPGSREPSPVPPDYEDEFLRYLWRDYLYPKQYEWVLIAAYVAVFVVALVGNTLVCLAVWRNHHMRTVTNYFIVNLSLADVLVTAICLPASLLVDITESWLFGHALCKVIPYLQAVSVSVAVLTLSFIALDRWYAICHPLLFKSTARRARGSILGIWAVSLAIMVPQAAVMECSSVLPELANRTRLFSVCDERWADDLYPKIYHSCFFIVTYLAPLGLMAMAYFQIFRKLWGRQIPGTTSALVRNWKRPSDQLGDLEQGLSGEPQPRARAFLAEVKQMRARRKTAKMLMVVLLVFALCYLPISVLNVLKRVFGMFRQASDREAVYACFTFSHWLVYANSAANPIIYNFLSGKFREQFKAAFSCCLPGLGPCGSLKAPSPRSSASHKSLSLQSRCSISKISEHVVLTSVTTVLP

[46] = Selectivity ratio of Ki for OX2R (unknown origin) transfected in CHO cells to Ki for OX1R (unknown origin) transfected in CHO cells; format: cell-based
[47] = molecular target: T2, Orexin receptor type 2 (Homo sapiens, UniProt O43614); assay: Displacement of […]5IBOM from OX2R (unknown origin) transfected in CHO cells assessed as inhibition constant incubated for 1.5 hrs by automated gamma-counter analysis; format: cell-based
T2 sequence (O43614 whole entry): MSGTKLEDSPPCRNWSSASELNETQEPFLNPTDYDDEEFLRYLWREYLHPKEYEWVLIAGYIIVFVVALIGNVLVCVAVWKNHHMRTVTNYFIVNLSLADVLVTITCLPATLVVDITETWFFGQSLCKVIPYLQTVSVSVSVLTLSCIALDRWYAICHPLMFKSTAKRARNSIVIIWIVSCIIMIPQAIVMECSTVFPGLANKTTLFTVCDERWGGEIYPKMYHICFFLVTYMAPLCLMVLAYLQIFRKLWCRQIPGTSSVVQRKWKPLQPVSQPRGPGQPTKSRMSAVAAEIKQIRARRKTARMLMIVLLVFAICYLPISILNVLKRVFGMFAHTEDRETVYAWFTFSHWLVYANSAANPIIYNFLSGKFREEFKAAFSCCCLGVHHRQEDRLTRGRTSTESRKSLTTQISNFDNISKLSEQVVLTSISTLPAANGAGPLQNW

Drug uptake [1]: 4.44 % ID/g
Drug uptake [2]: 7.53 % ID/g
Drug uptake [3]: 0.81 % ID/g
Drug uptake [4]: 0.67 % ID/g
Drug uptake [5]: 1.65 %ID
Drug uptake [6]: 1.23 % ID/g
Drug uptake [7]: 0.26 % ID/g
Drug uptake [8]: 16 % ID/g
Drug uptake [9]: 2.95 % ID/g
Drug uptake [10]: 1.44 % ID/g
Drug uptake [11]: 10.3 % ID/g
Drug uptake [12]: 0.43 % ID/g
Drug uptake [13]: 5.23 % ID/g
Drug uptake [14]: 0.98 % ID/g
Drug uptake [15]: 6.23 % ID/g
Drug uptake [16]: 2.42 % ID/g
Drug uptake [17]: 7.6 % ID/g
Drug uptake [18]: 16.3 % ID/g
Drug uptake [19]: 26.9 % ID/g
Drug uptake [20]: 6.58 % ID/g
Drug uptake [21]: 4.94 % ID/g
Drug uptake [22]: 1.35 %ID
Drug uptake [23]: 14.7 % ID/g
Drug uptake [24]: 2.92 % ID/g
Drug uptake [25]: 3.33 % ID/g
Drug uptake [26]: 0.87 %ID
Drug uptake [27]: 2.38 % ID/g
Drug uptake [28]: 1.15 %ID
Drug uptake [29]: 3.11 % ID/g
Drug uptake [30]: 11.8 % ID/g
Drug uptake [31]: 0.9 % ID/g
Drug uptake [32]: 0.42 % ID/g
Drug uptake [33]: 1.89 % ID/g
Drug uptake [34]: 13.3 % ID/g
Drug uptake [35]: 5.89 % ID/g
Drug uptake [36]: 1.2 % ID/g
Drug uptake [37]: 2.91 % ID/g
Drug uptake [38]: 0.11 % ID/g
Drug uptake [39]: 3.11 % ID/g
Drug uptake [40]: 0.48 % ID/g
Drug uptake [41]: 13.2 % ID/g
Drug uptake [42]: 1.46 % ID/g
Drug uptake [43]: 3.43 % ID/g
Drug uptake [44]: 0.22 % ID/g
SMILES: Cc1ccc(-n2nccn2)c(C(=O)N2CCCN(c3nc4ccc([18F])cc4s3)C[C@@H]2C)c1

Ki [45]: 6.67 nM
Ki [47]: 19 nM
SMILES: C[C@H]1CN(c2nc3ccc(F)cc3s2)CCCN1C(=O)c1cc(C(F)(F)F)ccc1-n1nccn1
Ratio Ki [46]: 2.85

Ki [45]: 17.7 nM
Ki [47]: 156 nM
SMILES: Cc1ccc(-n2nccn2)c(C(=O)N2CCCN(c3nc4ccc(F)cc4o3)C[C@@H]2C)c1
Ratio Ki [46]: 8.8
